Test results from PubChem BioAssay AID222 (DTP/NCI, 2004).
Several values for one entry are separate records, joined by “and”; a condition that tells them apart may be missing. Equal values may be shown once. Inconclusive results and toxic doses are left out.

Test system: C57BL/6 mice, intracerebral ependymoblastoma, median survival T/C
Assay: NCI In Vivo Anticancer Drug Screen. Data for tumor model Ependymoblastoma (intracerebral) in C57BL/6 mice
Details: endpoint: median survival time, higher = longer survival
Protocol: The antitumor activity of compounds was measured in mice bearing transplantable tumors. Survival or tumor size were measured and the results are expressed as the measurement made in the treated group (T) divided by the measurement made in the vehicle treated control group (C). The tumor model used in this assay is Ependymoblastoma (intracerebral) in C57BL/6 mice

With `CC(=O)CC(c1ccccc1)c1c(O)c2ccccc2oc1=O` (centres undefined) the T/C (dose: 0.09 mg/kg/injection, schedule: Q01DX005 (ip), vehicle: saline) was 93 % of control, the T/C (dose: 0.18 mg/kg/injection, schedule: Q01DX005 (ip), vehicle: saline) was 115 % of control and the T/C (dose: 0.36 mg/kg/injection, schedule: Q01DX005 (ip), vehicle: saline) was 98 % of control. For the same compound, the T/C (dose: 1.44 mg/kg/injection, schedule: Q01DX005 (ip), vehicle: saline) was 87 % of control.

For `CO[C@H]1C[C@@H]2CC[C@@H](C)[C@@](O)(O2)C(=O)C(=O)N2CCCC[C@H]2C(=O)O[C@H]([C@H](C)C[C@@H]2CC[C@@H](O)[C@H](OC)C2)CC(=O)[C@H](C)C=C(C)[C@@H](O)[C@@H](OC)C(=O)[C@H](C)C[C@H](C)/C=C/C=C/C=C1C`, the T/C (dose: 3.12 mg/kg/injection, schedule: Q01DX009 (ip), vehicle: saline with Tween-80) was 111 % of control, the T/C (dose: 6.25 mg/kg/injection, schedule: Q01DX009 (ip), vehicle: saline with Tween-80) was 120 % of control and the T/C (dose: 100.0 mg/kg/injection, schedule: Q01DX009 (ip), vehicle: saline with Tween-80) was 157 % of control. For the same compound, the T/C (dose: 200.0 mg/kg/injection, schedule: Q01DX009 (ip), vehicle: saline with Tween-80) was 92 % of control.

In the case of `O=NN(CCCl)C(=O)NCCCl`, the T/C (dose: 0.12 mg/kg/injection, schedule: Q03HX032 (ip), vehicle: saline) is reported as 113 % of control and 291 % of control, the T/C (dose: 0.25 mg/kg/injection, schedule: Q03HX032 (ip), vehicle: saline) is reported as 291 % of control and the T/C (dose: 0.5 mg/kg/injection, schedule: Q03HX008 (ip), vehicle: saline) is reported as 110 % of control. For the same compound, the T/C (dose: 0.5 mg/kg/injection, schedule: Q03HX032 (ip), vehicle: saline) was 169 % of control, the T/C (dose: 1.0 mg/kg/injection, schedule: Q01DX005 (ip), vehicle: saline + alcohol) was 109 % of control and the T/C (dose: 2.0 mg/kg/injection, schedule: Q01DX001 (ip), vehicle: Klucel (hydroxypropylcellulose) (HPC)) was 95 % of control and 100 % of control and 111 % of control. For the same compound, the T/C (dose: 2.0 mg/kg/injection, schedule: Q01DX005 (ip), vehicle: saline with Tween-80) was 113 % of control, the T/C (dose: 2.0 mg/kg/injection, schedule: Q03HX008 (ip), vehicle: saline) was 103 % of control and 251 % of control and the T/C (dose: 2.0 mg/kg/injection, schedule: Q03HX032 (ip), vehicle: saline) was 151 % of control and 179 % of control. The T/C (dose: 4.0 mg/kg/injection, schedule: Q01DX001 (ip), vehicle: Klucel (hydroxypropylcellulose) (HPC)) was 101 % of control and 106 % of control and 120 % of control, the T/C (dose: 4.0 mg/kg/injection, schedule: Q01DX001 (oral), vehicle: saline with Tween-80) was 97 % of control and 108 % of control and the T/C (dose: 4.0 mg/kg/injection, schedule: Q01DX005 (ip), vehicle: alcohol) was 106 % of control. The T/C (dose: 4.0 mg/kg/injection, schedule: Q03HX008 (ip), vehicle: saline) was 178 % of control and 327 % of control, the T/C (dose: 4.0 mg/kg/injection, schedule: Q## X006 (ip), vehicle: saline with Tween-80) was 159 % of control and the T/C (dose: 8.0 mg/kg/injection, schedule: Q01DX001 (ip), vehicle: Klucel (hydroxypropylcellulose) (HPC)) was 115 % of control. For the same compound, the T/C (dose: 8.0 mg/kg/injection, schedule: Q01DX001 (oral), vehicle: saline with Tween-80) was 95 % of control and 102 % of control and 122 % of control, the T/C (dose: 8.0 mg/kg/injection, schedule: Q01DX005 (ip), vehicle: saline + alcohol) was 361 % of control and the T/C (dose: 8.0 mg/kg/injection, schedule: Q03HX008 (ip), vehicle: saline) was 96 % of control and 98 % of control. For the same compound, the T/C (dose: 8.0 mg/kg/injection, schedule: Q## X006 (ip), vehicle: saline with Tween-80) was 219 % of control, the T/C (dose: 10.0 mg/kg/injection, schedule: Q01DX001 (ip), vehicle: other) was 124 % of control and the T/C (dose: 15.0 mg/kg/injection, schedule: Q01DX001 (ip), vehicle: saline with Tween-80) was 176 % of control. The T/C (dose: 16.0 mg/kg/injection, schedule: Q01DX001 (ip), vehicle: Klucel (hydroxypropylcellulose) (HPC)) was 150 % of control and 228 % of control, the T/C (dose: 16.0 mg/kg/injection, schedule: Q01DX001 (ip), vehicle: other) was 124 % of control and the T/C (dose: 16.0 mg/kg/injection, schedule: Q01DX001 (oral), vehicle: saline with Tween-80) was 158 % of control. The T/C (dose: 16.0 mg/kg/injection, schedule: Q01DX005 (ip), vehicle: saline + alcohol) was 96 % of control, the T/C (dose: 16.0 mg/kg/injection, schedule: Q08DX002 (ip), vehicle: saline) was 207 % of control and 291 % of control and the T/C (dose: 20.0 mg/kg/injection, schedule: Q01DX001 (ip), vehicle: other) was 164 % of control. For the same compound, the T/C (dose: 20.0 mg/kg/injection, schedule: Q01DX001 (oral), vehicle: saline with Tween-80) was 195 % of control, the T/C (dose: 30.0 mg/kg/injection, schedule: Q01DX001 (ip), vehicle: saline with Tween-80) was 212 % of control and the T/C (dose: 32.0 mg/kg/injection, schedule: Q01DX001 (ip), vehicle: Klucel (hydroxypropylcellulose) (HPC)) was 101 % of control and 217 % of control and 231 % of control. For the same compound, the T/C (dose: 32.0 mg/kg/injection, schedule: Q01DX001 (ip), vehicle: other) was 219 % of control, the T/C (dose: 32.0 mg/kg/injection, schedule: Q01DX001 (oral), vehicle: saline with Tween-80) was 108 % of control and the T/C (dose: 32.0 mg/kg/injection, schedule: Q04DX004 (ip), vehicle: saline) was 111 % of control. The T/C (dose: 40.0 mg/kg/injection, schedule: Q01DX001 (ip), vehicle: other) was 196 % of control, the T/C (dose: 64.0 mg/kg/injection, schedule: Q01DX001 (ip), vehicle: saline with Tween-80) was 94 % of control and the T/C (dose: 64.0 mg/kg/injection, schedule: Q01DX001 (oral), vehicle: saline with Tween-80) was 94 % of control. The T/C (dose: 64.0 mg/kg/injection, schedule: Q04DX004 (ip), vehicle: saline) was 100 % of control, the T/C (dose: 64.0 mg/kg/injection, schedule: Q08DX002 (ip), vehicle: saline) was 97 % of control and the T/C (dose: 128.0 mg/kg/injection, schedule: Q01DX001 (ip), vehicle: saline with Tween-80) was 97 % of control. For the same compound, the T/C (dose: 128.0 mg/kg/injection, schedule: Q01DX001 (oral), vehicle: saline with Tween-80) was 92 % of control, the T/C (dose: 256.0 mg/kg/injection, schedule: Q01DX001 (ip), vehicle: saline with Tween-80) was 88 % of control and the T/C (dose: 256.0 mg/kg/injection, schedule: Q01DX001 (oral), vehicle: saline with Tween-80) was 88 % of control.

In the case of `O=C1NC(=O)C2(CCc3ccc(N(CCCl)CCCl)cc32)N1` (centres undefined), the T/C (dose: 0.75 mg/kg/injection, schedule: Q01DX009 (ip), vehicle: Klucel (hydroxypropylcellulose) (HPC)) is reported as 93 % of control, the T/C (dose: 1.5 mg/kg/injection, schedule: Q01DX009 (ip), vehicle: Klucel (hydroxypropylcellulose) (HPC)) is reported as 101 % of control and the T/C (dose: 3.0 mg/kg/injection, schedule: Q01DX009 (ip), vehicle: Klucel (hydroxypropylcellulose) (HPC)) is reported as 115 % of control. For the same compound, the T/C (dose: 6.0 mg/kg/injection, schedule: Q01DX009 (ip), vehicle: Klucel (hydroxypropylcellulose) (HPC)) was 98 % of control, the T/C (dose: 6.25 mg/kg/injection, schedule: Q01DX005 (ip), vehicle: Klucel (hydroxypropylcellulose) (HPC)) was 114 % of control and the T/C (dose: 12.0 mg/kg/injection, schedule: Q01DX009 (ip), vehicle: Klucel (hydroxypropylcellulose) (HPC)) was 91 % of control. The T/C (dose: 12.5 mg/kg/injection, schedule: Q01DX005 (ip), vehicle: Klucel (hydroxypropylcellulose) (HPC)) was 115 % of control and the T/C (dose: 25.0 mg/kg/injection, schedule: Q01DX005 (ip), vehicle: Klucel (hydroxypropylcellulose) (HPC)) was 102 % of control.

`COc1cc2c3c(c1)-c1c(ccc(OC)c1OC)CC3N(CCN(CCCl)CCCl)CC2` (centres undefined) was tested, and the T/C (dose: 4.0 mg/kg/injection, schedule: Q01DX005 (ip), vehicle: saline with Tween-80) was 101 % of control and 108 % of control, the T/C (dose: 8.0 mg/kg/injection, schedule: Q01DX005 (ip), vehicle: saline with Tween-80) was 104 % of control and 105 % of control and the T/C (dose: 16.0 mg/kg/injection, schedule: Q01DX005 (ip), vehicle: saline with Tween-80) was 108 % of control. For the same compound, the T/C (dose: 32.0 mg/kg/injection, schedule: Q01DX005 (ip), vehicle: saline with Tween-80) was 110 % of control.

In the case of `CCC(=O)O[C@H]1CC[C@H]2[C@@H]3CCC4=CC(=O)CC[C@]4(C)[C@H]3CC[C@]12C`, the T/C (dose: 8.0 mg/kg/injection, schedule: Q01DX005 (ip), vehicle: saline) is reported as 91 % of control and 98 % of control, the T/C (dose: 16.0 mg/kg/injection, schedule: Q01DX005 (ip), vehicle: saline) is reported as 90 % of control and 102 % of control and the T/C (dose: 32.0 mg/kg/injection, schedule: Q01DX005 (ip), vehicle: saline) is reported as 93 % of control and 100 % of control. For the same compound, the T/C (dose: 64.0 mg/kg/injection, schedule: Q01DX005 (ip), vehicle: saline) was 98 % of control and 99 % of control, the T/C (dose: 128.0 mg/kg/injection, schedule: Q01DX005 (ip), vehicle: saline) was 90 % of control and the T/C (dose: 256.0 mg/kg/injection, schedule: Q01DX005 (ip), vehicle: saline) was 89 % of control and 94 % of control. The T/C (dose: 512.0 mg/kg/injection, schedule: Q01DX005 (ip), vehicle: saline) was 91 % of control and 99 % of control.
